Reference: ChEMBL document CHEMBL3352551, “Synthesis and biological evaluation of novel allosteric enhancers of the A1 adenosine receptor based on 2-amino-3-(4'-chlorobenzoyl)-4-substituted-5-arylethynyl thiophene” (J Med Chem, 2014)
Activity calls are given as the source filed them. The calls are words filed in the database; no cut-off is given here.

Columns and labels:
[1] = biological target: T1, Adenosine receptor A1 (Homo sapiens) (UniProt P30542); assay: Displacement of [3H]DPCPX from human adenosine A1 receptor expressed in CHO cell membranes at 10 uM
T1 sequence (whole entry): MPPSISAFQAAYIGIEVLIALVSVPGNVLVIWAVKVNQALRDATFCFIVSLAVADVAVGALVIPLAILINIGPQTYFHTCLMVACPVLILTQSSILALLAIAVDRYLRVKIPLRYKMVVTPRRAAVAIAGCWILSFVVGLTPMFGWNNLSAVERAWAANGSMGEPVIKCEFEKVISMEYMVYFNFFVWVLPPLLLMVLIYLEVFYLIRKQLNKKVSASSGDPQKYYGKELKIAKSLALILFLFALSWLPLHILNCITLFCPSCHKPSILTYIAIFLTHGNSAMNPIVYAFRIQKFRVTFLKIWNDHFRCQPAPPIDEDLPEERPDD

[2] = biological target: Adenosine receptor A2a (Homo sapiens) (UniProt P29274); assay: Displacement of [3H]ZM241385 from human adenosine A2A receptor expressed in CHO cell membranes at 10 uM
Sequence of Adenosine receptor A2a (Homo sapiens) (P29274 whole entry): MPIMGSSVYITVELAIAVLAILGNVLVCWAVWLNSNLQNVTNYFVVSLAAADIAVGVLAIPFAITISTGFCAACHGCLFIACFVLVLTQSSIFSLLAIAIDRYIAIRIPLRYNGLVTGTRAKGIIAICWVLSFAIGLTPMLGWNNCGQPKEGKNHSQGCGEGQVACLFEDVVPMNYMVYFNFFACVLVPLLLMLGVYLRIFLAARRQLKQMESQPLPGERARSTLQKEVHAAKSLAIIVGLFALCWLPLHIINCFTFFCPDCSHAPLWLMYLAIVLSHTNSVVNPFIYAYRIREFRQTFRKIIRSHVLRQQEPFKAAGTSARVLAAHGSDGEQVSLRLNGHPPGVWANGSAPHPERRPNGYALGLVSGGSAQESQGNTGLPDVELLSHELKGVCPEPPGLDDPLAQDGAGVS

Adenosine receptor A1 = biological target: T2, Adenosine receptor A1 (Rattus norvegicus, UniProt P25099); assay: Displacement of [3H]DPCPX from adenosine A1 receptor in rat membranes; format: cell membranes
T2 sequence (P25099 whole entry): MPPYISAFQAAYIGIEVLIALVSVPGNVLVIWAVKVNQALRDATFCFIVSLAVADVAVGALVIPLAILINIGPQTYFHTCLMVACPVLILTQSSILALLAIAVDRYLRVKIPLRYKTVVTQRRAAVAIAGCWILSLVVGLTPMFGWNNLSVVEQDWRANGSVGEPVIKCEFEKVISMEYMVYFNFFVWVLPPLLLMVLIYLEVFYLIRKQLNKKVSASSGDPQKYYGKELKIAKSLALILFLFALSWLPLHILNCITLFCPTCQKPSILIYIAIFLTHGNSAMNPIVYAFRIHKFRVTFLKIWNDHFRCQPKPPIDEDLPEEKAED

[3] = biological target: T1, Adenosine receptor A1 (Homo sapiens); assay: Allosteric enhancer activity at human adenosine A1 receptor expressed in CHO cell membranes assessed as shift in [3H]CCPA Bmax level at 10 uM by saturation binding assay
[4] = biological target: T1, Adenosine receptor A1 (Homo sapiens); assay: Allosteric enhancer activity at human adenosine A1 receptor expressed in CHO cell membranes assessed as shift in [3H]CCPA Kd level at 10 uM by saturation binding assay
[5] = biological target: T1, Adenosine receptor A1 (Homo sapiens); assay: Allosteric enhancer activity at human adenosine A1 receptor expressed in CHO cell membranes assessed as shift in CCPA binding Ki level at 10 uM by [3H]DPCPX competition binding assay
[6] = biological target: T1, Adenosine receptor A1 (Homo sapiens); assay: Allosteric enhancer activity at human adenosine A1 receptor expressed in CHO cell membranes assessed as [3H]NECA association rate at 1 uM (reference value: 0.0183 +/- 0.0008 /nM/min); format: cell-based
[7] = biological target: T1, Adenosine receptor A1 (Homo sapiens); assay: Allosteric enhancer activity at human adenosine A1 receptor expressed in CHO cell membranes assessed as [3H]NECA dissociation rate at 1 uM (reference value: 0.0159 +/- 0.0004 /min); format: cell-based
[8] = biological target: T1, Adenosine receptor A1 (Homo sapiens); assay: Allosteric enhancer activity at human adenosine A1 receptor expressed in CHO cell membranes assessed as shift in [3H}NECA binding affinity level at 1 uM
[9] = biological target: T1, Adenosine receptor A1 (Homo sapiens); assay: Allosteric enhancer activity at human adenosine A1 receptor expressed in CHO cells assessed as inhibition of forskolin-induced cAMP production at 10 uM; format: functional, cell-based
[10] = biological target: T1, Adenosine receptor A1 (Homo sapiens); assay: Allosteric enhancer activity at human adenosine A1 receptor expressed in CHO cells assessed as inhibition of forskolin-induced cAMP production at 100 nM in presence of 1 pM CCPA; format: functional, cell-based
[11] = biological target: T3, Adenosine receptor A3 (Homo sapiens) (UniProt P0DMS8); assay: Displacement of [3H]MRE-3008-F20 from human adenosine 3 receptor expressed in CHO cell membranes at 10 uM
T3 sequence (whole entry): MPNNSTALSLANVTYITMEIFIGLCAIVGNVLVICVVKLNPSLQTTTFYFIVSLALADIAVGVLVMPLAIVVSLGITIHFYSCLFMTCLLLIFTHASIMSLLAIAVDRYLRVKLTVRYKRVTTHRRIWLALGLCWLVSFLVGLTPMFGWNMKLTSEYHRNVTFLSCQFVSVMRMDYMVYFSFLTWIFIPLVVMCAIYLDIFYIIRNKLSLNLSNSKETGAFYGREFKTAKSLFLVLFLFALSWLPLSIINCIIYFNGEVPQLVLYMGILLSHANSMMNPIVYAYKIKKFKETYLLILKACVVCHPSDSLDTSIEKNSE

[12] = biological target: T1, Adenosine receptor A1 (Homo sapiens); assay: Allosteric enhancer activity at human adenosine A1 receptor expressed in CHO cell membranes assessed as slowing of [3H]NECA dissociation rate level at 1 uM; format: cell-based

| inhibition [1] | inhibition [2] | Ki (Adenosine receptor A1) | fold change (FC) [3] | Activity [4] | fold change (FC) [5] | K [6] | K [7] | fold change (FC) [8] | inhibition [9] | inhibition [10] | inhibition [11] | fold change (FC) [12] | Structure (SMILES) |
| --- | --- | --- | --- | --- | --- | --- | --- | --- | --- | --- | --- | --- | --- |
| inactive | inactive | 11 µM | 1.3 | inactive | 1.3 | 318000 M⁻¹ s⁻¹ | 0.0143 min⁻¹ | 1.2 | – | – | – | – | Cc1sc(N)c(C(=O)c2cccc(C(F)(F)F)c2)c1C |
| < 15% | < 15% | – | 9.5 | inactive | 9.9 | 273000 M⁻¹ s⁻¹ | 0.0076 min⁻¹ | 1.9 | 75% | 77% | < 15% | 2.1 | CC(C)(C)Cc1c(C#Cc2ccccc2)sc(N)c1C(=O)c1ccc(Cl)cc1 |
